Assay results: US20230348362A1, “LIPID COMPOUNDS AND LIPID NANOPARTICLE COMPOSITIONS” (Suzhou Abogen Biosciences Co., Ltd., priority 2021, published 2023)
Read-outs that look alike come from different tables or passages of the source.

How the values were obtained:
[1] = mouse, in vivo, iv, 0.5 mg/kg
Description: (§2) LNPs were injected into mice via the tail vein (ICR female, IV, 0.5 mg mRNA/kg), then mice were anesthetized under carbon dioxide at different time (e.g., 6 h, 24 h, and 48 h) after administration and sacrificed via cardiac puncture. Liver tissue were collected immediately, and then washed by ice-cold saline. Liver samples were weighed and homogenized in ice water bath by adding pre-chilled 20% methanol-water (v/v) at 2˜8° C. with the ratio of 1:5 (w/v). The homogenized tissue samples were stored in −90˜−60° C. freezer prior to analysis.
(§3) Sample Processing. All liver tissue homogenate samples were allowed to thaw at room temperature. An aliquot of 50 μL of sample was added with 50 μL MgCl2 (2M), then added with ACN which contains of Verapamil, 5 ng·mL^−1 and Glibenclamide, 50 ng·mL^−1 and Diclofenac, 200 ng·mL^1 and Tolbutamide, 200 ng·mL^1 for protein precipitation, then centrifuged at 13000 rpm for 8 min. Then 100 μL of supernatant was added with 100 μL water, then vortexed well. An aliquot of 5 μL of the mixture was injected into the LC-MS/MS system.

[2] = Lipid nanoparticle size and polydispersity by dynamic light scattering; format: physicochemical; settings: LNP of lipid/DSPC/cholesterol/PEG-lipid 50:10:38.5:1.5 encapsulating hEPO mRNA
Summary of the method: (§1)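 LNPs made from ionizable lipid/DSPC/cholesterol/PEG-lipid (50:10:38.5:1.5) and mRNA in citrate pH 4 by microfluidic mixing, lipid:mRNA about 10:1–30:1 w/w, then dialysed into DPBS and filtered. Size and PDI measured by DLS in backscatter mode; encapsulation efficiency measured by RiboGreen assay.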

[3] = Encapsulation efficiency of lipid nanoparticles, Quant-it Ribogreen RNA assay; format: physicochemical; settings: LNP of lipid/DSPC/cholesterol/PEG-lipid 50:10:38.5:1.5 encapsulating hEPO mRNA
Summary of the method: as §1

[4] = Apparent pKa of LNP formulations, TNS fluorescence assay; format: physicochemical; settings: LNP cationic lipid/DSPC/cholesterol/DMG-PEG 50/10/38.5/1.5 mol %
Summary of the method: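 LNPs (cationic lipid/DSPC/cholesterol/DMG-PEG 50/10/38.5/1.5 mol %) diluted to 0.1 mg/mL total lipid in citrate/phosphate/borate/NaCl buffers spanning pH 3–9 with TNS. Fluorescence (ex 325, em 435 nm) read at room temperature; pKa taken as the pH at half-maximal intensity from sigmoidal fit.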

[5] = Lipid clearance study: lipid remaining in liver tissue by LC-MS/MS; settings: ICR female mice, 0.5 mg/kg i.v. bolus dose mRNA
Description: as §2, §3

Row | SMILES | % Dose Remaining in Liver Tissue ([1]; 6 h) [%] | % Dose Remaining in Liver Tissue ([1]; 24 h) [%] | % Dose Remaining in Liver Tissue ([1]; 48 h) [%] | polydispersity [2] | size (nm) [2] [nm] | Encapsulation Efficiency [3] [%] | Apparent Pka [4] | % Dose Remaining in Liver Tissue ([5]; 6 h) [%] | % Dose Remaining in Liver Tissue ([5]; 24 h) [%] | % Dose Remaining in Liver Tissue ([5]; 48 h) [%]
1 | CCCCC/C=C\C/C=C\CCCCCCCCC(CCCCCCCC/C=C\C/C=C\CCCCC)OC(=O)CCCN(C)C [MC3, dilinoleylmethyl-4-dimethylaminobutyrate] | 69.39 | 61.63 | 52.47 |  |  |  |  |  |  | 
2 | CCCCCCCCCCCOC(=O)CCCCCN(CCN(CCO)CCCCCC(=O)OCC(CCCCCCCC)CCCCCCCC)C1CCCCC1 [Compound 21] |  |  |  | 0.042 | 81.93 | 92.3 | 6.361 | 94.55 | 67.66 | 24.38
